In patent US6916840B2, “Spla2 inhibitors” (Eli Lilly and Company, priority 2000, dated 2005) one finds melting point and IC50 data, which are given here for seven compounds.

Data set [1] deals with T1, recombinant human secreted phospholipase A2 (sPLA2) (Homo sapiens, UniProt P14555).
T1 sequence (P14555 21-144): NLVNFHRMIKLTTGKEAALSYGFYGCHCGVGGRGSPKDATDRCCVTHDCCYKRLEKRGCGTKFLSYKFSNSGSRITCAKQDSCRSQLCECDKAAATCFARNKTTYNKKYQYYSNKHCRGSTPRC
Briefly: chromogenic assay for inhibitors of recombinant human secreted phospholipase A2. The class given is biochemical. The note with it: diheptanoyl thio-PC substrate 1 mM, Triton X-100 mixed micelles, pH 7.5, 40° C. for 30 minutes, absorbance at 405 nm, triplicate. An excerpt:
The following chromogenic assay procedure was used to identify and evaluate inhibitors of recombinant human secreted phospholipase A2. The assay described herein has been adapted for high volume screening using 96 well microtiter plates. A general description of this assay method is found in the article, “Analysis of Human Synovial Fluid Phospholipase A2 on Short Chain Phosphatidylcholine-Mixed Micelles: Development of a Spectrophotometric Assay Suitable for a Microtiterplate Reader”, by Laure J. Reynolds, Lori L. Hughes, and Edward A Dennis, Analytical Biochemistry, 204, pp. 190-197, 1992 (the disclosure of which is incorporated herein by reference):
A measured volume of racemic dipheptanoyl thio PC supplied in chloroform at a concentration of 100 mg/ml is taken to dryness and redissolved in 10 millimolar TRITON X-100™ nonionic detergent aqueous solution. Reaction Buffer is added to the solution, then DTNB to give the Reaction Mixture.
The reaction mixture thus obtained contains 1 mM diheptanoly thio-PC substrate, 0.29 mm Triton X-100™ detergent, and 0.12 mm DTMB in a buffered aqueous solution at pH 7.5.
• 1. Add 0.2 ml reaction mixture to all wells; • 2. Add 10 ul test compound (or solvent blank) to appropriate wells, mix 20 seconds; • 3. Add 50 nanograms of sPLA2 (10 microliters) to appropriate wells; • 4. Incubate plate at 40° C. for 30 minutes; • 5. Read absorbance of wells at 405 nanometers with an automatic plate reader.
Tests were done in triplicate. Typically, compounds were tested at a final concentration of 5 ug/ml. […] Lack of color development at 405 nanometers evidenced inhibition. Compounds initially found to be active were re-assayed to confirm their activity and, if sufficiently active, IC50 values were determined. […] In all cases, % inhibition measured at 405 nanometers generated by enzyme reactions containing inhibitors relative to the uninhibited control reactions was determined. Each sample was titrated in triplicate and result values were averaged for plotting and calculation of IC50 values. IC50 values were determined by plotting log concentration versus inhibition values in the range from 10-90% inhibition.

Broadly, the melting point is the temperature, or range, at which the solid turns liquid. With `CCc1c(C(=O)C(N)=O)c2c(OCC(=O)OC)cc3ccccc3c2n1Cc1ccccc1` (hydrate or solvate) [Example 1, 2-[[3-(2-Amino-1,2-dioxoethyl)-2-ethyl-1-benzyl-1H-benz[g]indol-4-yl]oxy]acetic acid methyl ester hemihydrate], the melting point was 165 to 167 °C. By IC50 is commonly meant the concentration that gives 50% inhibition. Take `CCc1c(C(=O)C(N)=O)c2c(OCC(=O)OC)cc3ccccc3c2n1Cc1ccccc1` [Example 1, 2-[[3-(2-Amino-1,2-dioxoethyl)-2-ethyl-1-benzyl-1H-benz[g]indol-4-yl]oxy]acetic acid methyl ester hemihydrate]: the IC50 in data set [1] stood at 0.048 µM. Still for that read-out and setting: the value for `CCc1c(C(=O)C(N)=O)c2c(OCC(=O)O)cc3ccccc3c2n1Cc1ccccc1` [Example 2, 2-[[3-(2-Amino-1,2-dioxoethyl)-2-ethyl-1-benzyl-1H-benz[g]indol-4-yl]oxy]acetic acid] was 0.01 µM.

In the case of `COC(=O)COc1cc2ccccc2c2c1c(C(=O)C(N)=O)c(C)n2CC1CCCCC1` [Example 3, 2-[[3-(2-amino-1,2-dioxoethyl)-2-methyl-1-cyclohexylmethyl-1H-benz[g]indol-4-yl]oxy]acetic acid methyl ester], in data set [1], the IC50 turned out to be 0.148 µM. `Cc1c(C(=O)C(N)=O)c2c(OCC(=O)O)cc3ccccc3c2n1CC1CCCCC1` [Example 4, 2-[[3-(2-Amino-1,2-dioxoethyl)-2-methyl-1-cyclohexylmethyl-1H-benz[g]indol-4-yl]oxy]acetic acid]: the half-inhibitory concentration (IC50) in data set [1] is 0.011 µM. Take `COC(=O)COc1cc2ccccc2c2c1c(C(=O)C(N)=O)c(C)n2Cc1cccc(-c2ccc(F)cc2)c1` [Example 5, 2-[[3-(2-Amino-1,2-dioxoethyl)-2-methyl-1-[3-(4-fluorophenyl)benzyl]-1H-benz[g]indol-4-yl]oxy]acetic acid methyl ester]: the IC50 in data set [1] came out at 0.176 µM. As to `Cc1c(C(=O)C(N)=O)c2c(OCC(=O)O)cc3ccccc3c2n1Cc1cccc(-c2ccc(F)cc2)c1` [Example 6, 2-[[3-(2-Amino-1,2-dioxoethyl)-2-methyl-1-[3-(4-fluorophenyl)benzyl]-1H-benz[g]indol-4-yl]oxy]acetic acid.], the IC50 in data set [1] was 0.021 µM.
